Data published in article PMC12578816 (Scientific Reports, 2025).
In brackets after ≈: the same amount, converted by molar mass. Entries after “also recorded” stand apart in the source; their conditions may differ. Like-named read-outs stand apart in the source and are kept apart here. Each block holds one molecule with its values, some of them ahead of it.

Legend:
[1] = tested on: α-glucosidase (from Saccharomyces cerevisiae); experiment: α-glucosidase inhibitory assay; type: biochemical
[2] = tested on: α-glucosidase (from Saccharomyces cerevisiae); experiment: α-glucosidase enzyme kinetic analysis; conditions: for inhibition mechanism: Lineweaver–Burk plots; for Ki: secondary plot of slopes
α-glucosidase = conditions: cited from earlier work

Molecule: CCCCOC(=O)c1ccccc1C(=O)OCCCC [DBP, dibutyl phthalate]
α-glucosidase inhibitory activity of isolated compounds (in words) [1]: exhibited α-glucosidase inhibitory activity | inhibition mechanism [2]: mixed-type | Ki [2]: 516 µM

Inhibition (%) ([1]; 10 mg/mL, n = 3, mean ± SD): 80.2 ± 0.7% | inhibition mechanism [2]: competitive inhibition
Molecule: C[C@H]1O[C@H](O[C@H]2[C@H](O)[C@@H](O)[C@@H](O[C@H]3[C@H](O)[C@@H](O)C(O)O[C@@H]3CO)O[C@@H]2CO)[C@H](O)[C@@H](O)[C@@H]1N[C@H]1C=C(CO)[C@@H](O)[C@H](O)[C@H]1O (stereo partly drawn) [Acarbose, reference compound]
inhibition mechanism (α-glucosidase): competitive inhibitor

Molecule: CCCCCCCCCCCCCCCC(=O)O [C16:0, Palmitic acid]
inhibition mechanism (α-glucosidase; fatty acids): mixed-type

Molecule: hydroxyglutaric acid [HGA]
IC50 (α-glucosidase; from Paenibacillus sp. TKU042): 220 µg/mL

Molecule: CCCCC/C=C\C/C=C\C/C=C\C/C=C\CCCC(=O)O [arachidonic acid]
inhibition mechanism (α-glucosidase; fatty acids): mixed-type

α-glucosidase inhibitory activity of isolated compounds (in words) [1]: no inhibitory activity
Molecule: CC(=O)c1nccc2c1[nH]c1ccccc12 [1-acetyl-β-carboline]

Molecule: OC[C@H]1O[C@H](O[C@H]2[C@H](O)[C@@H](O)[C@@H](O[C@H]3[C@H](O)[C@@H](O)C(O)O[C@@H]3CO)O[C@@H]2CO)[C@H](O)[C@@H](O)[C@@H]1N[C@@H]1[C@H](O)[C@@H](O)[C@H](O)[C@]2(CO)O[C@H]12 (stereo partly drawn) [CKD-711]
IC50 (α-glucosidase): 2.5 µg/mL (≈ 3.69 µM)

α-glucosidase inhibitory activity of isolated compounds (in words) [1]: no inhibitory activity
Molecule: O=Cc1ccc(O)cc1 [4-hydroxybenzaldehyde]

Molecule: CC/C=C\C/C=C\C/C=C\C/C=C\C/C=C\CCCC(=O)O [eicosapentaenoic acid]
inhibition mechanism (α-glucosidase; fatty acids): mixed-type

inhibition mechanism [2]: mixed-type | Ki [2]: 90.9 µM
Molecule: Nc1ncnc2c1ncn2[C@@H]1O[C@H](CO)[C@@H](O)[C@H]1O [Adenosine]
α-glucosidase inhibitory activity of isolated compounds (in words) [1]: exhibited α-glucosidase inhibitory activity

Molecule: CC/C=C\C/C=C\C/C=C\CCCCCCCC(=O)O [α-linolenic acid]
inhibition mechanism (α-glucosidase; fatty acids): mixed-type

Molecule: O=c1c(-c2ccc(O)cc2)coc2cc(O)cc(O)c12 [genistein]
inhibition type (α-glucosidase): non-competitive inhibitor

Molecule: OC[C@H]1O[C@H](O[C@H]2[C@H](O)[C@@H](O)[C@@H](O[C@H]3[C@H](O)[C@@H](O)[C@@H](O[C@H]4[C@H](O)[C@@H](O)[C@@H](O[C@H]5[C@H](O)[C@@H](O)C(O)O[C@@H]5CO)O[C@@H]4CO)O[C@@H]3CO)O[C@@H]2CO)[C@H](O)[C@@H](O)[C@@H]1N[C@@H]1[C@H](O)[C@@H](O)[C@H](O)[C@]2(CO)O[C@H]12 (stereo partly drawn) [CKD-711a]
IC50 (α-glucosidase): 6.5 µg/mL (≈ 6.49 µM)

Ki [2]: 153 µM
Molecule: O=c1ccn([C@@H]2O[C@H](CO)[C@@H](O)[C@H]2O)c(=O)[nH]1 [Uridine]
α-glucosidase inhibitory activity of isolated compounds (in words) [1]: exhibited α-glucosidase inhibitory activity | inhibition mechanism [2]: competitive inhibitor; also recorded: competitive inhibition

Molecule: CCCCCCCC/C=C\CCCCCCCC(=O)O [oleic acid]
inhibition mechanism (α-glucosidase; fatty acids): mixed-type

Molecule: CCCCC/C=C\C/C=C\CCCCCCCC(=O)O [linoleic acid]
inhibition mechanism (α-glucosidase; fatty acids): mixed-type
